Experimental data: patent US20220380721A1, “METHOD FOR COUPLING ANTIBODY TO SURFACE OF CELL AND METHOD FOR APPLYING CELL COUPLED WITH THE ANTIBODY” (Xiamen Nuokangde Biological Technology Co., Ltd., priority 2019, published 2022)

Tested on: NK92 cells
Test: Metabolic incorporation of azido sialic acid in NK92 cells, detected with FITC-Stau by confocal laser microscope
Assay type: cell-based
Conditions: NK92 cells cultured with 100 μM 9N3-SA for 24-48 hours; FITC-Stau 100 μM, 37° C., 2-4 hours; compared with cells not modified
Experimental: NK92 cells normally cultured are distributed into a 24-well plate and then cultured in a NK92 cell medium containing 9N3-SA with a final concentration of 100 μM for 24-48 hours. The NK92 cells are washed by PBS for 3 times, and the NK92 cell medium containing 9N3-SA is then replaced by a normal NK92 medium to obtain NK92 cells modified with the azide groups. In order to verify that the NK92 cells have been modified with the azide groups, in this embodiment, Fluorescein-Stau (FITC-Stau) (as shown in FIG. 3), a ligand molecule connected to fluorescein and able to orthogonally react with the azide groups, is synthesized. The FITC-Stau is added into a medium of the NK92 cell modified with the azide groups with a final concentration of 100 μM, incubated at 37° C. for 2-4 hours, and washed with PBS for 3 times, and fluorescence on the cell surface is then observed by a confocal laser microscope.

## COC(=O)[C@@]1(O)C[C@@H](O)[C@@H](NC(C)=O)C([C@H](O)[C@H](O)CN=[N+]=[N-])O1 (stereo partly shown) [9N3-SA]
  fluorescence on the cell surface after FITC-Stau labeling: strong fluorescence signal
